Experimental data published in patent publication US20230354703A1, “ORGANIC COMPOUND AND LIGHT-EMITTING DEVICE” (SEMICONDUCTOR ENERGY LABORATORY CO., LTD., priority 2022, published 2023).

Tests used:
[1] = water-solubility examined by calculation: polarization term δp of the solubility parameter (classical molecular dynamics, Desmond/OPLS2005); settings: from the difference between the calculated δp and the δp of water (16.0); larger difference = lower solubility
Description: Then, the water-solubility of 2,9hpp2Phen was examined by calculation and the results are shown.
Desmond was used as software for the classical molecular dynamics calculation, and OPLS2005 was used for the force field. The calculation was performed using a high performance computer (Apollo 6500 manufactured by Hewlett Packard Enterprise Development).
A standard cell containing approximately 32 molecules is used a calculation model. […] After that, the structures are moved and rotated at random to move the molecules by Monte Carlo simulated annealing using OPLS2005 for the force field. Furthermore, the molecules are moved toward the center of the standard cell such that the density thereof is maximized; thus, the initial arrangement is obtained.
As a basis function, 6-31G** was used, and as a functional, B3LYP-D3 was used. […]
The aforementioned initial arrangement is subjected to Brownian motion simulation and then defined in an NVT ensemble; subsequently, calculation in an NPT ensemble is performed for an enough relaxation time (30 ns) under the conditions of 1 atm and 300 K with respect to time steps that reproduce molecular vibration (2 fs), so that an amorphous solid is calculated. […]
The actually measured value δp corresponding to the polarization term for the water-solubility parameter is disclosed as 16.0 in Japanese Published Patent Application No. 2017-173056, for example. […]

[2] = statement in words, background/description; cited from earlier work

| Structure (SMILES) | solubility in water compared with hpp2Py [1] | solubility in water [2] |
| --- | --- | --- |
| c1cc2ccc3ccc(N4CCCN5CCCN=C54)nc3c2nc1N1CCCN2CCCN=C21 [2,9hpp2Phen, 2,9-bis(1,3,4,6,7,8-hexahydro-2H-pyrimido[1,2-a]pyrimidin-1-yl)-1,10-phenanthroline] | less soluble in water than hpp2Py | – |
| c1cc(N2CCCN3CCCN=C32)c2ccc3c(N4CCCN5CCCN=C54)ccnc3c2n1 [4,7hpp2Phen, 4,7-bis(1,3,4,6,7,8-hexahydro-2H-pyrimido[1,2-a]pyrimidin-1-yl)-1,10-phenanthroline] | less soluble in water than hpp2Py | – |
| c1cc(N2CCCN3CCCN=C32)nc(N2CCCN3CCCN=C32)c1 [hpp2Py, 1,1′-pyridine-2,6-diyl-bis(1,3,4,6,7,8-hexahydro-2H-pyrimido[1,2-a]pyrimidine)] | – | highly soluble in water |
